From patent publication US20250186600A1, “EXCIPIENT COMPOUNDS FOR PROTEIN FORMULATIONS” (Comera Life Sciences, Inc., priority 2020, published 2025)
One block for each molecule: values may come before it.

Legend:
[1] = test system: infliximab; assay: Thermal stability at 50° C. with caffeine and excipients, SE-HPLC (Example 63); format: physicochemical; conditions: excipient 0.5 M, caffeine 50 mM, infliximab 10 mg/mL, 5 mM phosphate pH 7.5, 50° C., 180 min
Method: Therapeutic proteins stress leads to aggregation of the protein and a decrease in the active native species. […] The aliquots were withdrawn at 0 min, 90 min and 180 min. […] Diode array detector.

[2] = test system: bovine gamma globulin (BGG); assay: Normalized viscosity of BGG with caffeine and a secondary excipient (Example 40); format: physicochemical; conditions: BGG about 280 mg/mL, 20 mM histidine pH 6, 25° C.
[3] = test system: omalizumab; assay: Freeze-thaw stability, light scattering at 350 nm (Example 48); format: physicochemical; conditions: excipient 5 mg/mL, omalizumab 5 mg/mL, 20 mM histidine pH 6.0, at least 5 freeze (−80° C.)/thaw cycles
[4] = test system: ustekinumab; assay: Stabilization at low pH, Sypro orange fluorescence (Example 45); conditions: excipient 5 mg/mL, ustekinumab 1 mg/mL, glycine acidification buffer pH 2.6, Sypro orange fluorescence
[5] = test system: omalizumab; assay: Freeze/thaw stress (6 cycles), monomer by SE-HPLC (Example 57); format: physicochemical; conditions: excipient 100 mM, omalizumab 2 mg/mL, 20 mM Histidine pH 6.0, freeze (−80° C.)/thaw
Method: Therapeutic proteins are frequently kept at low temperatures to improve their kinetic stability and minimize structural perturbations that could lead to the aggregation of the protein and a decrease in the active native species. In certain cases, this might be done by freezing the formulation until use. However, the low temperatures, concentration gradients, and ice formation during repeated freezing and thawing can stress the protein. […] The formulations were then aliquoted into 0.5 mL cryovials and frozen at −80° C. for 120 min. The samples were then thawed using a water bath kept at room temperature.

[6] = Caffeine solubility with co-solutes during refrigerated storage (Example 61); format: physicochemical; parameters: key: (PPT)—precipitate observed; (—)—clear solution observed; conditions: 50 mM co-solute, 25 mM histidine pH 6, stored 2 to 5° C.
Method: The resulting microplates were then sealed with microplate tape and stored in a refrigerator with the temperature maintained in the range of 2 to 5° C. Over the course of storage, the microplates were visually observed for evidence of precipitate in the well.

[7] = test system: ustekinumab; assay: Urea denaturation, Sypro orange fluorescence (Example 44); format: physicochemical; conditions: excipient 5 mg/mL, ustekinumab 1 mg/mL, 6M urea, 20 mM histidine pH 6.0, Sypro orange fluorescence
From the text: It is known that urea denatures proteins in solution and causes them to unfold. The screening methodology in this example involved adding a specific concentration of urea to a therapeutic protein solution such as ustekinumab. […] One method to track protein unfolding involves the use of extrinsic fluorescent dyes such as Sypro orange. Sypro orange binds to hydrophobic regions in the unfolded protein structure, leading to an increase in the fluorescence signal observed. Measuring the differences in the fluorescence intensity of unfolded protein-Sypro orange complex in presence of different excipients thus allows one to identify any stabilizing effects.
All excipients used in this Example, listed in Table 45 below, were of the highest purity, and were obtained from Sigma Aldrich (St. Louis, MO) or Cayman Chemical (Ann Arbor, MI). […] This urea stock solution was then added to a final concentration of 6M to produce the test solutions (excipient plus protein plus urea). […] The pH of the mixture was rechecked and confirmed to be at pH 6.0. The test solutions were allowed to incubate at room temperature for 30 min.

[8] = Excipient A caffeine 15 mg/mL + Excipient B 15 mg/mL
[9] = Excipient A caffeine 15 mg/mL + Excipient B 20 mg/mL

- % change compared to control [1]: 9.65%
Molecule: OC[C@H]1O[C@H](O[C@H]2[C@H](O)[C@@H](O)C(O)O[C@@H]2CO)[C@H](O)[C@@H](O)[C@@H]1O (mixture of isomers) [Maltose]

- % change compared to control [1]: 45.8%
Molecule: O=C1O[C@H]([C@@H](O)CO)C(O)=C1O[C@H]1O[C@H](CO)[C@@H](O)[C@H](O)[C@H]1O [Ascorbyl glucoside]

Molecule: O.O.[Ca+2].[Cl-].[Cl-] [CaCl2 dihydrate]
- Normalized Viscosity [2, 8]: 0.65

- % reduction in light scattering at 350 nm vs. control [3]: 17.2%
Molecule: O=C(O)CN(CCN(CC(=O)O)CC(=O)O)CCN(CC(=O)O)CC(=O)O [DTPA]

- Normalized Viscosity ([2]; Excipient A caffeine 15 mg/mL + Excipient B 25 mg/mL): 0.65
Molecule: CS(C)(=O)=O [Dimethyl sulfone, dimethyl sulfone]

- Normalized Viscosity ([2]; Excipient A caffeine 15 mg/mL + Excipient B 22 mg/mL): 0.65
Molecule: CCO [Ethanol]

Molecule: O=C(O)[C@@H]1C[C@@H](O)CN1 [Hydroxyproline]
- % change compared to control [1]: 67.3%

- % change in stability [4]: 11.6%
- % reduction in light scattering at 350 nm vs. control [3]: 11.7%
Molecule: OC[C@H](O)[C@@H](O)[C@H](O)[C@@H](O)CO [Iditol]

- % change compared to control [1]: 58.9%
Molecule: O[C@H]1[C@H](O)[C@@H](O)[C@H](O)[C@@H](O)[C@H]1O [Inositol]

- % change in stability [4]: 65.4%
- % reduction in light scattering at 350 nm vs. control [3]: 4.8%
Molecule: NC(=O)c1ccncc1 [Isonicotinamide]

- Normalized Viscosity [2, 9]: 0.69
Molecule: CC(C)C[C@H](N)C(=O)O [Leucine]

- % reduction in light scattering at 350 nm vs. control [3]: 17.8%
Molecule: OC[C@@H](O)[C@@H](O)[C@H](O)[C@H](O)CO [Mannitol]

- % change in stability [4]: 41.8%
- % reduction in light scattering at 350 nm vs. control [3]: 15.3%
Molecule: CNC[C@H](O)[C@@H](O)[C@H](O)[C@H](O)CO [Meglumine]

Molecule: OC[C@H]1O[C@@](CO)(O[C@H]2O[C@H](CO)[C@@H](O)[C@H](O)[C@H]2O)[C@@H](O[C@H]2O[C@H](CO)[C@@H](O)[C@H](O)[C@H]2O)[C@@H]1O [Melezitose]
- % reduction in light scattering at 350 nm vs. control [3]: 7.4%

- % increase in monomer content vs. control [5]: 6.63%
Molecule: CC(=O)N[C@@H]1C(O)O[C@H](CO)[C@@H](O)[C@@H]1O (stereo partly shown) [N-acetyl mannosamine]

- Normalized Viscosity [2, 8]: 0.63
Molecule: NC(=O)c1cccnc1 [Niacinamide]

- Normalized Viscosity [2, 9]: 0.60
- Day 1 (visual observation for precipitate) ([6]; caffeine 7.5 mg/mL): —
- Day 7 (visual observation for precipitate) ([6]; caffeine 7.5 mg/mL): —
- Day 18 (visual observation for precipitate) ([6]; caffeine 7.5 mg/mL): —
- Day 27 (visual observation for precipitate) ([6]; caffeine 7.5 mg/mL): —
- Day 56 (visual observation for precipitate) ([6]; caffeine 7.5 mg/mL): —
- Day 1 (visual observation for precipitate) ([6]; caffeine 10 mg/mL): —
- Day 7 (visual observation for precipitate) ([6]; caffeine 10 mg/mL): —
- Day 18 (visual observation for precipitate) ([6]; caffeine 10 mg/mL): —
- Day 27 (visual observation for precipitate) ([6]; caffeine 10 mg/mL): —
- Day 56 (visual observation for precipitate) ([6]; caffeine 10 mg/mL): —
- Day 1 (visual observation for precipitate) ([6]; caffeine 12.5 mg/mL): —
- Day 7 (visual observation for precipitate) ([6]; caffeine 12.5 mg/mL): —
- Day 18 (visual observation for precipitate) ([6]; caffeine 12.5 mg/mL): —
- Day 27 (visual observation for precipitate) ([6]; caffeine 12.5 mg/mL): —
- Day 56 (visual observation for precipitate) ([6]; caffeine 12.5 mg/mL): —
- Day 1 (visual observation for precipitate) ([6]; caffeine 15 mg/mL): —
- Day 7 (visual observation for precipitate) ([6]; caffeine 15 mg/mL): —
- Day 18 (visual observation for precipitate) ([6]; caffeine 15 mg/mL): —
- Day 27 (visual observation for precipitate) ([6]; caffeine 15 mg/mL): —
- Day 56 (visual observation for precipitate) ([6]; caffeine 15 mg/mL): PPT
- Day 1 (visual observation for precipitate) ([6]; caffeine 20 mg/mL): —
- Day 7 (visual observation for precipitate) ([6]; caffeine 20 mg/mL): PPT
- Day 18 (visual observation for precipitate) ([6]; caffeine 20 mg/mL): PPT
- Day 27 (visual observation for precipitate) ([6]; caffeine 20 mg/mL): PPT
- Day 56 (visual observation for precipitate) ([6]; caffeine 20 mg/mL): PPT
Molecule: N[C@@H](Cc1ccccc1)C(=O)O [Phenylalanine]

- % change in stability [4]: 1.1%
- % reduction in light scattering at 350 nm vs. control [3]: 15.3%
Molecule: O=C(CO)[C@H](O)[C@H](O)[C@H](O)CO [Psicose]

- % change in stability [4]: 2.6%
- % increased stability [7]: 1.7%
- % reduction in light scattering at 350 nm vs. control [3]: 3.7%
Molecule: OC[C@H]1O[C@H](OC[C@H]2O[C@H](O[C@]3(CO)O[C@H](CO)[C@@H](O)[C@@H]3O)[C@H](O)[C@@H](O)[C@@H]2O)[C@H](O)[C@@H](O)[C@H]1O [Raffinose]

- % change compared to control [1]: 46.2%
Molecule: O=P(O)(O)C(O)(Cc1cccnc1)P(=O)(O)O [Risedronate]

Molecule: CC(=O)[O-].[Na+] [Sodium acetate]
- Normalized Viscosity ([2]; Excipient A caffeine 15 mg/mL + Excipient B 12 mg/mL): 0.77

Molecule: C[N+](C)(C)[O-] [Trimethyl amine N-oxide]
- % change compared to control [1]: 10.9%

- % change in stability [4]: 0.4%
- % increased stability [7]: 6.3%
- % reduction in light scattering at 350 nm vs. control [3]: 10.7%
Molecule: OC[C@@H](O)[C@H](O)[C@@H](O)CO [Xylitol]

Molecule: O=C(CO)[C@@H](O)[C@H](O)[C@H](O)[C@H](O)CO [seduheptalose]
- % reduction in light scattering at 350 nm vs. control [3]: 16.0%

- % change compared to control [1]: 12.6%
Molecule: Maltotriose
